The source of these data is ChEMBL document CHEMBL1201862, “PubChem BioAssay data set” (2004).

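Briefly, cells in 96-well plates were exposed to five compound concentrations for 48 h, and endpoints were estimated by linear interpolation. The concentration for 50% growth inhibition is given as GI50.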 Calls of active or inactive are those of the source. Rule as the data show it: active = GI50 up to about 1.1 µM and inactive = higher.

Some test systems named below: UACC-62; CCRF-CEM; DU-145; MDA-MB-231; TK-10; M14; UO-31; Hs-578T; K562; HCT-116; SF-295; OVCAR-5; UACC-257; SK-MEL-5; Malme-3M; MDA-MB-435; SF-268; SF-539.
What all share (assay): NCI anticancer screen, dose series, 48 h

Consider `O=C1C(c2c(O)[nH]c3ccc(Br)cc23)=Nc2ccccc21`, for which the GI50 was 12.2 µM (inactive) in the experiment on UACC-62; 22.7 µM (inactive) in the experiment on CCRF-CEM; 6.81 µM (inactive) in the experiment on DU-145; 15 µM (inactive) in the experiment with MDA-MB-231; 13.4 µM (inactive) in the experiment on TK-10; 11.3 µM (inactive) with M14. For the same compound, the GI50 with UO-31 was 2.74 µM (inactive); with Hs-578T, 12.9 µM (inactive); in the experiment with K562, 5.62 µM (inactive); in the experiment with HCT-116 it was 2.32 µM (inactive); in the experiment on SF-295, 15.5 µM (inactive); in the experiment on OVCAR-5, 11.9 µM (inactive). Moreover, the GI50 with UACC-257 was 24.2 µM (inactive); in the experiment with SK-MEL-5, 4.01 µM (inactive); in the experiment on Malme-3M it was 4.91 µM (inactive); with MDA-MB-435, 6.9 µM (inactive); in the experiment with SF-268, 9.62 µM (inactive).

Regarding `COc1ccc(NCc2cnc3nc(N)nc(N)c3c2C)cc1`, the GI50 with UACC-62 was 0.274 µM (active); in the experiment with CCRF-CEM, 0.57 µM (active); with DU-145, 0.718 µM (active); with MDA-MB-231, 0.121 µM (active); in the experiment on TK-10, 41.4 µM (inactive); with M14, 1.69 µM (inactive). Further, the GI50 was > 49.8 µM (inactive) in the experiment with UO-31; 59.8 µM (inactive) in the experiment on Hs-578T; 0.0486 µM (active) in the experiment with K562; 0.0785 µM (active) with HCT-116; 0.41 µM (active) in the experiment with SF-295; 3.87 µM (inactive) in the experiment on OVCAR-5. In addition, the GI50 in the experiment with UACC-257 is 2.58 µM (inactive); with SK-MEL-5, 0.419 µM (active); in the experiment with SF-539 it was 0.7 µM (active); in the experiment with MDA-MB-435 it was 0.428 µM (active); in the experiment with SF-268, 0.618 µM (active).

With `Cc1ccccc1/N=N/c1ccc(N/N=C2/CCCNC2=O)c(C)c1`, the GI50 was > 100 µM (inactive) in the experiment on UACC-62; 9.46 µM (inactive) in the experiment on CCRF-CEM; > 100 µM (inactive) with DU-145; > 100 µM (inactive) in the experiment with MDA-MB-231; > 100 µM (inactive) with TK-10; > 100 µM (inactive) in the experiment with M14. Also, the GI50 in the experiment on UO-31 is 39.5 µM (inactive); in the experiment on Hs-578T, > 100 µM (inactive); with K562, > 100 µM (inactive); in the experiment on HCT-116 it was > 100 µM (inactive); with SF-295, > 100 µM (inactive); with OVCAR-5 it was > 100 µM (inactive). For the same compound, the GI50 in the experiment with UACC-257 is > 100 µM (inactive); in the experiment on SK-MEL-5 it was 45.2 µM (inactive); in the experiment with Malme-3M, > 100 µM (inactive); in the experiment on MDA-MB-435 it was > 100 µM (inactive); with SF-268 it was > 100 µM (inactive).

Take `OCCCCCCCCCCCOc1ccc(C2OCC3(CC=CCC3)CO2)cc1` (stereo not given): the GI50 with UACC-62 is 17.1 µM (inactive); in the experiment on CCRF-CEM, 11 µM (inactive); in the experiment on DU-145, 16.2 µM (inactive); with MDA-MB-231 it was 16.9 µM (inactive); with TK-10 it was 16.9 µM (inactive); in the experiment with M14 it was 11.1 µM (inactive). The GI50 in the experiment on UO-31 is 17.5 µM (inactive); in the experiment on Hs-578T, 7.87 µM (inactive); in the experiment with HCT-116 it was 15.8 µM (inactive); in the experiment on SF-295 it was 17.6 µM (inactive); with OVCAR-5, 19.3 µM (inactive); in the experiment with UACC-257, 16.8 µM (inactive). The GI50 in the experiment with SK-MEL-5 was 16.4 µM (inactive); in the experiment with Malme-3M it was 18.1 µM (inactive); in the experiment with SF-539 it was 19.1 µM (inactive); in the experiment on MDA-MB-435 it was 17.9 µM (inactive); in the experiment with SF-268, 17.9 µM (inactive).

With `O=C(CC(=O)N1N=C(N(c2ccccc2)c2ccccc2)CC1c1ccccc1)Nc1ccccc1` (stereo not given), the GI50 with UACC-62 is 34.4 µM (inactive); with CCRF-CEM, > 100 µM (inactive); in the experiment with DU-145, > 100 µM (inactive); in the experiment on MDA-MB-231, 7.82 µM (inactive); with TK-10 it was > 100 µM (inactive); in the experiment on M14, > 100 µM (inactive). Besides, the GI50 was > 100 µM (inactive) in the experiment with UO-31; 42.5 µM (inactive) in the experiment with Hs-578T; > 100 µM (inactive) in the experiment with K562; > 100 µM (inactive) in the experiment with HCT-116; 66.7 µM (inactive) in the experiment on SF-295; > 100 µM (inactive) in the experiment on OVCAR-5. Also, the GI50 is > 100 µM (inactive) in the experiment with UACC-257; > 100 µM (inactive) with SK-MEL-5; > 100 µM (inactive) in the experiment with SF-539; > 100 µM (inactive) with MDA-MB-435; 40.8 µM (inactive) in the experiment on SF-268.

`COc1ccc(C(=O)C#Cc2cnc(OC)nc2OC)cc1`: the GI50 in the experiment on UACC-62 was 1.11 µM (active); in the experiment on CCRF-CEM, 0.13 µM (active); in the experiment with DU-145 it was 2.31 µM (inactive); in the experiment on MDA-MB-231, 32400 µM (inactive); in the experiment with TK-10 it was 1.67 µM (inactive); in the experiment on M14 it was 1.36 µM (inactive). Besides, the GI50 was 1.29 µM (inactive) with UO-31; 4.07 µM (inactive) in the experiment on Hs-578T; 0.367 µM (active) in the experiment on K562; 1.32 µM (inactive) in the experiment with HCT-116; 12.4 µM (inactive) in the experiment with SF-295; 1.64 µM (inactive) in the experiment with OVCAR-5. The GI50 in the experiment with UACC-257 is 2.09 µM (inactive); in the experiment with SK-MEL-5, 1.34 µM (inactive); in the experiment on Malme-3M, 1.67 µM (inactive); with MDA-MB-435, 2.57 µM (inactive); in the experiment with SF-268, 2.74 µM (inactive).

On to `CC(C)OC(=O)[C@H]1ON2O[C@H](O[C@@H]3CCCC[C@H]3c3ccccc3)C([Si](C)(C)c3ccccc3)[C@H]3OC(=O)[C@@H]1C32` (stereo not given in full), for which the GI50 in the experiment on UACC-62 was > 100 µM (inactive); with CCRF-CEM, 94 µM (inactive); in the experiment on DU-145, > 100 µM (inactive); in the experiment with MDA-MB-231, > 100 µM (inactive); in the experiment on TK-10 it was > 100 µM (inactive); in the experiment on M14, > 100 µM (inactive). Moreover, the GI50 with UO-31 was > 100 µM (inactive); with Hs-578T, > 100 µM (inactive); in the experiment with K562, 34 µM (inactive); with HCT-116 it was > 100 µM (inactive); in the experiment on SF-295, > 100 µM (inactive); in the experiment on UACC-257, > 100 µM (inactive). For the same compound, the GI50 with SK-MEL-5, with SF-539, in the experiment on MDA-MB-435 and with SF-268 was > 100 µM (inactive) throughout.

With `Cc1c(NC(=O)c2cc([N+](=O)[O-])cc([N+](=O)[O-])c2)c(=O)n(-c2ccccc2)n1C`, the GI50 in the experiment with UACC-62, in the experiment with CCRF-CEM, in the experiment on DU-145, in the experiment on MDA-MB-231, with TK-10 and in the experiment with M14 was > 100 µM (inactive) throughout. The GI50 is > 100 µM (inactive) with UO-31; > 100 µM (inactive) with Hs-578T; > 100 µM (inactive) in the experiment with K562; > 100 µM (inactive) in the experiment on HCT-116; 32.8 µM (inactive) in the experiment on UACC-257; > 100 µM (inactive) with SK-MEL-5. In addition, the GI50 was 27.3 µM (inactive) in the experiment with Malme-3M, 69.8 µM (inactive) in the experiment with SF-539, > 100 µM (inactive) with MDA-MB-435 and > 100 µM (inactive) in the experiment on SF-268.

Take `CN1C(=O)C2CCCC(=O)N2c2cccnc21` (stereo not given): the GI50 in the experiment with UACC-62 was 68.9 µM (inactive); with CCRF-CEM it was > 100 µM (inactive); with DU-145, > 100 µM (inactive); with MDA-MB-231 it was > 100 µM (inactive); in the experiment with TK-10, > 100 µM (inactive); in the experiment on UO-31 it was 74.1 µM (inactive). For the same compound, the GI50 in the experiment on Hs-578T, with K562, in the experiment with HCT-116, in the experiment with SF-295, in the experiment with UACC-257 and in the experiment with SK-MEL-5 was > 100 µM (inactive) in each case. Further, the GI50 in the experiment on Malme-3M, in the experiment on SF-539, in the experiment on MDA-MB-435 and in the experiment on SF-268 was > 100 µM (inactive) each time.

Regarding `CC(=O)c1ccc(/N=N/N2CCCC2)cc1`, the GI50 with UACC-62, in the experiment with CCRF-CEM, in the experiment on DU-145, in the experiment on MDA-MB-231, with TK-10 and in the experiment with M14 was > 100 µM (inactive) throughout. Besides, the GI50 in the experiment with UO-31, in the experiment on Hs-578T, in the experiment with K562, in the experiment with HCT-116, in the experiment on SF-295 and with OVCAR-5 was > 100 µM (inactive) throughout. In addition, the GI50 in the experiment with UACC-257, in the experiment on SK-MEL-5, in the experiment with SF-539, in the experiment on MDA-MB-435 and with SF-268 was > 100 µM (inactive) each time.

On to `C=C1C(O)C[C@H](OC(C)=O)[C@]2(C)C1C(OC(C)=O)[C@]1(C(C)(C)O)CC(O)C(C)=C1[C@@H](OC(=O)c1ccccc1)C2OC(C)=O` (stereo not given in full), for which the GI50 in the experiment on UACC-62, with CCRF-CEM, with DU-145, in the experiment on MDA-MB-231, in the experiment with TK-10 and in the experiment with M14 was > 10 µM (inactive) throughout. Moreover, the GI50 with UO-31, in the experiment with Hs-578T, in the experiment on K562, in the experiment on HCT-116, in the experiment with SF-295 and with OVCAR-5 was > 10 µM (inactive) each time. Besides, the GI50 in the experiment with UACC-257, in the experiment on SK-MEL-5, in the experiment with SF-539, in the experiment with MDA-MB-435 and in the experiment on SF-268 was > 10 µM (inactive) throughout.

On to `COc1cc2c(cc1OC)-c1[nH]c3ccc(C#N)cc3c1CC(=O)N2`, for which the GI50 in the experiment with UACC-62 is > 84.9 µM (inactive); in the experiment with CCRF-CEM, 1.56 µM (inactive); with DU-145 it was 3.33 µM (inactive); with MDA-MB-231, > 100 µM (inactive); in the experiment on TK-10, > 27 µM (inactive); in the experiment with M14 it was 8.09 µM (inactive). For the same compound, the GI50 in the experiment on UO-31 was 2.11 µM (inactive); in the experiment on Hs-578T it was 0.861 µM (active); in the experiment with SF-295, 6.14 µM (inactive); with OVCAR-5 it was 3.69 µM (inactive); in the experiment on UACC-257, > 52 µM (inactive); in the experiment on SK-MEL-5, 3.23 µM (inactive). Moreover, the GI50 in the experiment with Malme-3M was > 28.5 µM (inactive); with SF-539 it was 0.521 µM (active); with MDA-MB-435, 8.79 µM (inactive); in the experiment on SF-268 it was 1.72 µM (inactive).
